Results reported in patent publication US11345682B2, “Polymorph of HDAC6-selective inhibitor and application thereof” (CSTONE PHARMACEUTICALS (SUZHOU) CO., LTD., priority 2018, dated 2022).

Legend:
[1] = Solid stability test of the polymorph A (XRPD); assay type: physicochemical
Protocol: According to the “Guidelines for the Stability Test of Active Pharmaceutical Ingredients and Preparations” (Chinese Pharmacopoeia, 2015, Part IV, General Chapter 9001), the stability of the polymorph A of the compound of formula (I) was investigated under the conditions of high temperature (60° C., open), high humidity (room temperature/relative humidity of 92.5%, open), high temperature and high humidity (40° C., 75% RH; 60° C., 75% RH) and strong light (total illumination of 1.2×10^6 Lux·hr/near ultraviolet 200 w·hr/m^2, sealed).
15 mg of the polymorph A of the compound of formula (I) was weighed, placed on the bottom of a glass sample bottle, and spread into a thin layer. The sample placed under high temperature and high humidity was sealed with aluminum foil paper, and some small holes were pierced in the aluminum foil paper to ensure that the sample can fully contact with the ambient air; The samples placed under strong light conditions were sealed with screw caps. The samples placed under different conditions were sampled and tested (XRPD) on day 5 and day 10. The test results were compared with the initial test results on day 0.

[2] = tested on: human multiple myeloma cells MM.1S xenograft (CDX); assay: In vivo pharmacodynamic study in MM.1S xenograft (CDX) model
Protocol: CB-17 SCID mice, female, 6 weeks to 8 weeks old, weight of about 17 grams to 20 grams. The mice were kept in a special pathogen-free environment and in a single ventilated cage (4 mice per cage). All cages, bedding and water were disinfected before use. All animals had free access to standard certified commercial laboratory food. A total of 64 mice purchased from Beijing Vital River Co., Ltd. were used for study. 0.2 mL of 5×10^6 MM.1S cells were subcutaneously inoculated on the right back of each mouse for tumor growth. The experiment was performed when the average tumor volume reached about 100 cubic millimeters to 150 cubic millimeters.
In vivo selective experiments were performed on CB-17 SCID mice implanted subcutaneously with human multiple myeloma cells MM.1S xenograft (CDX). The polymorph A of the compound of formula (I) was formulated with a mixed solution of 5% of dimethyl sulfoxide and 95% of 10% hydroxypropyl-β-cyclodextrin into a formulation to be administered orally for 5 days and stopped for 2 days. Ixazomib was administered once on the first day and fourth day of each week, respectively. The tumor volume was measured with a two-dimensional caliper twice a week, and the volume was measured in cubic millimeters and calculated by the following formula: V=0.5 a*b^2, in which a and b were the long diameter and short diameter of the tumor, respectively. The anti-tumor efficacy was determined by dividing the average tumor increase volume of animals treated with the compound by the average tumor increase volume of untreated animals.

[3] = Solid stability test of the polymorph A (XRPD); assay type: physicochemical; conditions: High temperature and high humidity (40° C., 75% RH; 60° C., 75% RH), 1 month

O=C(NO)c1ccc(CNC(=O)c2ccc(C3(c4ccc(F)cc4)CCCO3)cn2)cc1 (centres unmarked)
Polymorph ([1]; Day 0, initial (XRPD)): Polymorph A
Polymorph ([1]; High humidity (room temperature/relative humidity of 92.5%, open), Day 5): Polymorph A
Polymorph ([1]; High humidity (room temperature/relative humidity of 92.5%, open), Day 10): Polymorph A
Polymorph ([1]; High temperature (60° C., open), Day 5): Polymorph A
Polymorph ([1]; High temperature (60° C., open), Day 10): Polymorph A
Polymorph ([1]; High temperature and high humidity (40° C., 75% RH; 60° C., 75% RH), Day 10): Polymorph A
Polymorph ([1]; Strong light (5000 lx, sealed), Day 5): Polymorph A
Polymorph ([1]; Strong light (5000 lx, sealed), Day 10): Polymorph A
Solid stability (conclusion) ([1]; high temperature, high humidity, high temperature and high humidity, and strong light): good stability
Stability (general statement) ([1]; light, heat and humidity, technical effects statement): stable, less affected by light, heat and humidity
Tumor volume ([2]; 75 mg/kg oral, administration for 5 days and drug withdrawal for 2 days, Day 0): 134 mm^3
Tumor volume ([2]; 75 mg/kg oral, administration for 5 days and drug withdrawal for 2 days, Day 3): 165 mm^3
Tumor volume ([2]; 75 mg/kg oral, administration for 5 days and drug withdrawal for 2 days, Day 5): 319 mm^3
Tumor volume ([2]; 75 mg/kg oral, administration for 5 days and drug withdrawal for 2 days, Day 7): 466 mm^3
Tumor volume ([2]; 75 mg/kg oral, administration for 5 days and drug withdrawal for 2 days, Day 10): 753 mm^3
Tumor volume ([2]; 75 mg/kg oral, administration for 5 days and drug withdrawal for 2 days, Day 12): 1006 mm^3
Tumor volume ([2]; 75 mg/kg oral, administration for 5 days and drug withdrawal for 2 days, Day 14): 1532 mm^3
Efficacy in vivo (general statement) ([2]; technical effects statement): good efficacy in vivo
Polymorph [3]: Polymorph A

CC(C)C[C@H](NC(=O)CNC(=O)c1cc(Cl)ccc1Cl)B(O)O [Ixazomib, reference compound]
Tumor volume ([2]; Ixazomib 4 mg/kg, twice a week, Day 0): 134 mm^3
Tumor volume ([2]; Ixazomib 4 mg/kg, twice a week, Day 3): 157 mm^3
Tumor volume ([2]; Ixazomib 4 mg/kg, twice a week, Day 5): 193 mm^3
Tumor volume ([2]; Ixazomib 4 mg/kg, twice a week, Day 7): 331 mm^3
Tumor volume ([2]; Ixazomib 4 mg/kg, twice a week, Day 10): 634 mm^3
Tumor volume ([2]; Ixazomib 4 mg/kg, twice a week, Day 12): 835 mm^3
Tumor volume ([2]; Ixazomib 4 mg/kg, twice a week, Day 14): 1257 mm^3
